Results on one molecule are retold here after patent US9034895B2, “Composition and methods for treating glioblastoma” (University of Washington Through its Center for …, priority 2010, dated 2015).

The target in this assay is T1, CB2 (Mus musculus, UniProt P47936).
T1 construct: plasmids containing full coding region of mouse CB1 and CB2; expressed in transfected cells
Briefly: Radioligand competition binding, [3H]-CP55940, CB2-expressing HEK293 membranes. The procedure: Stable CB1 and CB2 expressing HEK293 cell lines were generated using plasmids containing full coding region of mouse CB1 and CB2.
Fragments were amplified from total RNA of cell lines by reverse transcriptase-polymerase chain reaction (RT-PCR). Sequence was confirmed and the fragment was cloned into the EcoRI site of the pIRES2-eGFP-express vector. Cells were grown to approximately 80% confluence in 10 cm cell culture dishes, transfected with the cDNA pIRES-eGFP-vector containing the murine CB1 or CB2 receptor using LipofectAMINE™ 2000 reagent in the serum-free media Opti-MEM 1 according to the manufacturer's description. Cells were subject to FACS sorting 48 h after transfection and single cell sorted based on dsRed expression into 96-well plates. Of the dsRed expressing positive clones, 3 were validated for CB1 and CB2 protein expression by radioligand binding analysis (methods discussed below).
Cells were grown to 90% confluence, rinsed twice with 1×PBS and stored at −80° C. until further use. To prepare crude cellular membrane fractions, dishes were removed from −80° C. and thawed at room temperature for 5 min. Once thawed, cells were lysed with ice-cold homogenization buffer (50 mM Tris, 1 mM EDTA, 3 mM MgCl2) and gently scraped from the dish. Total cell lysates from 3-5 dishes were collected on ice in 3 ml of ice-cold homogenization buffer. Cells were homogenized at 6,500 rpm (PRO Scientific, Oxford, Conn.) twice for 10 sec and centrifuged at 11,500 rpm for 20 min at 4° C. Supernatants were discarded and cell pellets were resuspended in homogenization buffer and triturated 10 times in ice-cold homogenization buffer. Crude cellular membrane homogenates were stored at −80° C. until further use. On the day of experiments, frozen homogenates were thawed at room temperature, gently triturated 10 times and subsequently dounce homogenized in a 7 ml glass tissue grinder (Wheaton Science Products, Millville, N.J.) by 5 strokes while on ice. […]

T1 sequence (P47936 whole entry): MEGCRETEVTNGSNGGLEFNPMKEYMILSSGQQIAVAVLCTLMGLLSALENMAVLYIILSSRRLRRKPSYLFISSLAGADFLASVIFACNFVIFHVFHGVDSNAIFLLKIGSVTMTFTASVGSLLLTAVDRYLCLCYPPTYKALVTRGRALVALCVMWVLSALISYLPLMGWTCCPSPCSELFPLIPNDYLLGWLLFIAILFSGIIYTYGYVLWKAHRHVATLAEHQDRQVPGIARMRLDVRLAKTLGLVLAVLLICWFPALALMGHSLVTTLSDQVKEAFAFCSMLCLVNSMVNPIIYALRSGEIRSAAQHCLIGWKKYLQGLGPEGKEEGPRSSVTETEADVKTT

On to `CCn1c(C)c(C(=O)c2ccc(C)c3ccccc23)c2ccccc21` [JWH-451, 1-Ethyl-2-methyl-3-(4-methyl-1-napthoyl)indole], for which, under “FIG. 2”, the “competition for [3H]-CP55940 binding at CB2” value was “does not”. Moreover, the “lower affinity at CB2 receptors than WIN55212-2” value (relative to WIN55212-2) was found to be 100 fold.
